Experimental data published in patent US5994334A, “Androgen synthesis inhibitors” (priority 1997, dated 1999).
pIC50, pKi: −log10 of the molar value.

What was measured:
[1] = test system: TRPM-2 gene; settings: vs castration; cited from earlier work
[2] = test system: BPH patients; settings: cited from earlier work; for serum testosterone levels (in words): human, in vivo
[3] = molecular target: T1, Human Prostatic 5α-Reductase (Homo sapiens, UniProt P31213); test: Inhibition of human prostatic 5α-reductase (prostatic microsomes, [3H]testosterone); settings: for pIC50: IC50 5α-reductase; for inhibition at 0.01 µM: read-out: % Inhibition of 5α-reductase, [I] 10 nM; for inhibition at 0.1 µM: read-out: % Inhibition of 5α-reductase, [I] 100 nM
T1 sequence (P31213 1-254): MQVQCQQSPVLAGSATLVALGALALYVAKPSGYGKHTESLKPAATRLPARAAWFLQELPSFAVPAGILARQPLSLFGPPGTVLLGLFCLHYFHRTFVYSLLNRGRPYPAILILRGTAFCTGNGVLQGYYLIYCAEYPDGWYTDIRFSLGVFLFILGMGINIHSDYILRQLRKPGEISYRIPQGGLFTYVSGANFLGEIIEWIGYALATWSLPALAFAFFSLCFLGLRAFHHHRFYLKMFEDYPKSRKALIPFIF

[4] = test system: 5α-reductase Type I and Type II isoforms; settings: cited from earlier work
[5] = test system: LNCaP human prostatic cancer cell line; test: Androgen-dependent growth of LNCaP cells; settings: for reversal of DHT-stimulated LNCaP growth (in words): 0.03 nM DHT; for stimulation of LNCaP cell proliferation (in words): hydroxyflutamide 0.3-1 μM
Description: The ability of various inhibitors to reverse the stimulatory effect of testosterone on the growth of the LNCaP human prostatic cancer cell line was tested by comparing cell number in wells treated for 9 days with either drug vehicle only (control), 0.1 nM testosterone only, or 0.1 nM testosterone with inhibitor at 0.3, 1, 2.5, or 5 μM.

[6] = test system: dogs; settings: vs finasteride; cited from earlier work
[7] = test system: cytochrome P450 steroidogenic enzymes; settings: human, in vivo; cited from earlier work
[8] = molecular target: C17,20-lyase; settings: [3H]-progesterone substrate; read-out: IC50 C17,20-lyase (Potter et al.); cited from earlier work
[9] = test system: 17α-hydroxylase/C17,20-lyase; settings: cited from earlier work
[10] = test system: mutant androgen receptor; settings: cited from earlier work
[11] = test system: breast cancers in postmenopausal patients; settings: human, in vivo; cited from earlier work
[12] = molecular target: rat C17,20-lyase (Rattus norvegicus, UniProt P11715); test: Inhibition kinetics of rat C17,20-lyase, 17α-hydroxyprogesterone substrate; assay type: biochemical; settings: 17α-hydroxyprogesterone as substrate; vs. Km 76 nM
Chain of rat C17,20-lyase (P11715 whole entry): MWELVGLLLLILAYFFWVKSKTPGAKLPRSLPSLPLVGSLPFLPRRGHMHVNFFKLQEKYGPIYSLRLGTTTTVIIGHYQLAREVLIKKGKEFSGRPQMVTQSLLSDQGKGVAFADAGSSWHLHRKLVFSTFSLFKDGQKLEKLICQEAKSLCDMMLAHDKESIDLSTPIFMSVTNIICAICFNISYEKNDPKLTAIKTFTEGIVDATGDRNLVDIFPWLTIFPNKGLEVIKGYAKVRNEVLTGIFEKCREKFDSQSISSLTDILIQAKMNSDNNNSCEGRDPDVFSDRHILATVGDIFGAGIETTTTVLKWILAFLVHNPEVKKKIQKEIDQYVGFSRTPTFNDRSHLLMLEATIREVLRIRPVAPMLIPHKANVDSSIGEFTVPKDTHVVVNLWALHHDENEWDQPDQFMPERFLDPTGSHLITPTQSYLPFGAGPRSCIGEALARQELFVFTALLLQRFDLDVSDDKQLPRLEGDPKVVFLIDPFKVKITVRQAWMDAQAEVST
Description: (§1) Studies in normal male rats have been carried out with 4-pregnen-3-one-20β-carboxaldehyde (I-16) (Li et al., 1992) and with its 20-carboxaldoxime (I-23)(Li et al., 1995).

[13] = molecular target: human androgen receptor (AR) (Homo sapiens, UniProt P10275); test: Androgen receptor-mediated gene transcription, wild-type AR (luciferase, CV1 cells); assay type: cell-based; settings: against DHT stimulation
Chain of human androgen receptor (AR) (P10275 whole entry): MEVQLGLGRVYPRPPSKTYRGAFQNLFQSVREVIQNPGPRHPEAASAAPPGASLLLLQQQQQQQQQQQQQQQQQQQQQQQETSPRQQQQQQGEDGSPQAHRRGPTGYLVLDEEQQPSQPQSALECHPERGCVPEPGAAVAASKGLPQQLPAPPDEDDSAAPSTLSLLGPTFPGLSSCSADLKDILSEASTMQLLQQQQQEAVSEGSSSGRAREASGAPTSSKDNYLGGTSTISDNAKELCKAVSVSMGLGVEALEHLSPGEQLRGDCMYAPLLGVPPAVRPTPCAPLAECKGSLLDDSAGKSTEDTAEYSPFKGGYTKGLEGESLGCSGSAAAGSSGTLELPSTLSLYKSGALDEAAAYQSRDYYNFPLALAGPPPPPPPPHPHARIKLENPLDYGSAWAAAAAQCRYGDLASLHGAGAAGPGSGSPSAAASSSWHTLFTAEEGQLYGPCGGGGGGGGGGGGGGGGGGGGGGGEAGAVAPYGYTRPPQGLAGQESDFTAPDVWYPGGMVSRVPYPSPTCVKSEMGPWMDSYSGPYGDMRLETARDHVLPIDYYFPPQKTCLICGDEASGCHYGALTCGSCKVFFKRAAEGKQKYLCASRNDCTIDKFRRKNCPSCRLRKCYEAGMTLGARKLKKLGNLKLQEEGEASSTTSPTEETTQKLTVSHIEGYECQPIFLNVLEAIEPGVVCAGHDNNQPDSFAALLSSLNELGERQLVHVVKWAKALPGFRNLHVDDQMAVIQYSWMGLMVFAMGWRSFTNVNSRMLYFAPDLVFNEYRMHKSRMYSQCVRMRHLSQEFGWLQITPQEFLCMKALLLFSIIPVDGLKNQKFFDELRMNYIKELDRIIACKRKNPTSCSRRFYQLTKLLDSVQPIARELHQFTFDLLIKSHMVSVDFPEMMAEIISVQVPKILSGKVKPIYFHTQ

[14] = molecular target: T1, Human Prostatic 5α-Reductase; test: biochemical
[15] = molecular target: rat 17α-hydroxylase (Rattus norvegicus, UniProt P11715); test: Inhibition kinetics of rat 17α-hydroxylase, progesterone substrate; assay type: biochemical
Chain of rat 17α-hydroxylase (P11715 whole entry): as the sequence (P11715 whole entry) above
Description: as §1

[16] = test system: mutant AR which is expressed in LNCaP cells; test: Androgen receptor-mediated gene transcription, mutant AR of LNCaP cells (luciferase, CV1 cells); assay type: cell-based, human
[17] = test system: rat 17α-hydroxylase/C17,20-lyase; test: Inhibition of rat 17α-hydroxylase/C17,20-lyase; assay type: biochemical
Description: as §1

[18] = test system: normal male rats; test: In vivo studies in normal male rats: hormone levels; parameters: species or system rat
Description: as §1

[19] = in vivo; cited from earlier work
[20] = test system: 5α-reductase; settings: cited from earlier work
[21] = test system: human prostatic tissue (BPH or prostate cancer); test: Prostate tissue in histoculture, DNA synthesis ([3H]-thymidine uptake); settings: inhibitor 1 μM; testosterone 1 μM; FIG. 1
Description: We recently developed a histoculture method to evaluate the growth inhibiting properties of the compounds on human prostatic tissue. […] The tissue samples were then incubated for 3 days in fresh medium/treatment containing 2 μCi/ml [^3 H]-thymidine. Tissue was then digested and DNA extracted. For each sample, [^3 H]-thymidine uptake was normalized to DNA content. […] This finding is consistent with the compound acting as an antiandrogen. None of the compounds produced an independent effect on DNA synthesis in the absence of added androgens.

[22] = test system: patients with prostatic cancer; settings: combined with GnRH or orchidectomy vs GnRH agonist or orchidectomy alone; cited from earlier work
[23] = molecular target: 17α-hydroxylase; settings: [3H]-progesterone substrate; read-out: IC50 17α-hydroxylase (Potter et al.); cited from earlier work
[24] = 50 mg/kg/day sc, 21 days, vs control
[25] = 50 mg/kg/day sc, 21 days, vs vehicle

CC(C)(C)NC(=O)[C@H]1CC[C@H]2[C@@H]3CC[C@H]4NC(=O)C=C[C@]4(C)[C@H]3CC[C@]12C [Finasteride, reference compound]
TRPM-2 expression (in words) [1]: not by finasteride treatment | serum testosterone levels (in words) [2]: increase serum testosterone levels | gynecomastia in long-term treatment (in words) ([2]; long-term treatment): some patients developed gynecomastia which led to breast cancer in a few cases | reduction of serum DHT ([2]; patients): 65-80% | pIC50 [3]: 7.85 | pIC50 ([3]; Table 2): 7.85 | pIC50 ([3]; Table 3, NI = no inhibition): 7.84 | inhibition at 0.01 µM [3]: 41.2% | inhibition at 0.1 µM [3]: 88.3% | inhibition at 0.4 µM ([3]; read-out: % Inhibition of 5α-reductase, [I] 400 nM): 93% | potency at 5α-reductase Type II vs Type I (in words) [4]: more potent inhibitor of the Type II than of the Type I isoform | reversal of DHT-stimulated LNCaP growth (in words) [5]: dose-dependent reversal | reversal of testosterone-stimulated LNCaP growth at 5 μM (in words) ([5]; 0.1 nM testosterone, inhibitor 5 μM): almost completely reversed | reversal of testosterone-stimulated LNCaP growth (in words) ([5]; 0.1 nM testosterone, inhibitor 0.3-5 μM, 9 days): dose-dependent reversal | pIC50 ([5]; Homo sapiens, LNCaP, 216 h, read-out: concentration reducing the stimulatory effect of testosterone by 50%): ≥ 6.00

C[C@]12C=CC(=O)N[C@@H]1CC[C@@H]1[C@@H]2CC[C@]2(C)[C@@H](C(=O)c3ccccc3)CC[C@@H]12 [MK-434]
serum testosterone levels (in words) [2]: increase serum testosterone levels | reduction of prostatic DHT in dogs (in words) [6]: reduces prostatic DHT levels in dogs more effectively than finasteride

CC(=O)N1CCN(c2ccc(OCC3COC(Cn4ccnc4)(c4ccc(Cl)cc4Cl)O3)cc2)CC1 (stereo not drawn) [Ketoconazole]
side-effects (in words) [7]: inhibition of several other cytochrome P450 steroidogenic enzymes, and reduction of cortisol production | pIC50 [8]: 7.59 | inhibition of 17α-hydroxylase/C17,20-lyase, literature (in words) [9]: not very potent

CC(C)(O)C(=O)Nc1ccc([N+](=O)[O-])c(C(F)(F)F)c1 [hydroxyflutamide, reference compound]
effect on mutant AR / prostatic cell growth (in words) [10]: agonist activity for the mutant androgen receptor of LNCaP cells | stimulation of LNCaP cell proliferation (in words) ([5]; 0.1 nM testosterone): stimulated cell proliferation

C[C@]12CCC(=O)C(O)=C1CC[C@@H]1[C@@H]2CC[C@]2(C)C(=O)CC[C@@H]12 [Compound 4-OHA, 4-hydroxyandrostene-3,17-dione]
side effects (in words) [11]: without significant side effects

C[C@H](C=NO)[C@H]1CC[C@H]2[C@@H]3CCC4=CC(=O)CC[C@]4(C)[C@H]3CC[C@]12C [Compound I-23, 3-oxo-4-pregnene-20β-carboxaldehyde oxime]
pKi [12]: 7.74 | pIC50 ([3]; Table 2): 6.97 | inhibition of 5α-reductase (in words) ([3]; NI = no inhibition): potent inhibition of 5α-reductase | inhibition at 0.01 µM [3]: 14.7% | inhibition at 0.1 µM [3]: 85.8% | antagonism of wild-type AR (in words) [13]: dose-dependent antagonism | pKi [14]: 8.85 | pKi [15]: 7.13 | agonism/antagonism at mutant AR of LNCaP cells (in words) [16]: agonists | inhibition of rat 17α-hydroxylase/C17,20-lyase (in words) [17]: inhibit rat 17α-hydroxylase/C17,20 -lyase | decrease of prostatic DHT [18, 24]: 44% | decrease of prostatic testosterone [18, 24]: 60% | serum LH concentration (in words) [18, 24]: unchanged | reduction of serum testosterone [18, 25]: 65% | reduction of testicular testosterone [18, 25]: 59% | reduction of testosterone and DHT levels in serum, testicular and prostatic tissues (in words) ([18]; rat): significantly reducing testosterone and DHT levels | reversal of DHT-stimulated LNCaP growth (in words) [5]: stimulation of growth above the level produced by DHT | stimulation of LNCaP cell proliferation (in words) ([5]; 0.1 nM testosterone): stimulated cell proliferation

CC(=O)[C@H]1CC[C@H]2[C@@H]3CCC4=CC(=O)CC[C@]4(C)[C@H]3CC[C@]12C [Progesterone]
metabolism and oral activity (in words) [19]: rapid metabolism in the body and lack of oral activity | inhibition of 5α-reductase, literature (in words) [20]: potent 5α-reductase inhibitor

CC(C)C(=O)Nc1ccc([N+](=O)[O-])c(C(F)(F)F)c1 [flutamide, reference compound]
reversal of testosterone-stimulated DNA synthesis (in words), 1 μM [21]: almost complete reversal | progression-free survival (in words) [22]: increased progression-free survival time

C[C@]12CC[C@H](O)CC1=CC[C@@H]1[C@@H]2CC[C@]2(C)C(c3cccnc3)=CC[C@@H]12 [CB7598, 17-(3'-pyridyl)androsta-5,16-diene-3-ol]
inhibition of 5α-reductase, literature (in words) [20]: no activity | pIC50 [23]: 8.40 | pIC50 [8]: 8.54
